# Test results as given in the NIST ThermoML archive (doi:10.1021/je201032t).
# ± gives the expanded uncertainty stated by the source.
# Key:
# [1] = refractive index (Na D-line) (dimensionless); details: 293.15 K; 101.33 kPa; Liquid; Standard Abbe refractometry
# [2] = Liquid, Ebulliometric method (Recirculating still)
refractive index [1],vapor or sublimation pressure ([2]; 323 K) [kPa],vapor or sublimation pressure ([2]; 343.4 K) [kPa],vapor or sublimation pressure ([2]; 353.2 K) [kPa],vapor or sublimation pressure ([2]; 363.1 K) [kPa],vapor or sublimation pressure ([2]; 369.2 K) [kPa],SMILES
1.4192 ± 0.0007,0.12,0.46,0.73 ± 1.2,1.31 ± 1.2,1.76 ± 1.2,CCCCCCCCCCCC [dodecane]
1.382 ± 0.0007,12.11 ± 1.2,32.82 ± 1.2,50.82 ± 1.3,76.67 ± 1.4,96.66 ± 1.4,CCCO [propan-1-ol]
